Where two headings read alike, the source gives them in different places.
Key:
Format in all cases: in vivo
Phartoitis purpureum [1] = experiment: Post-emergence herbicidal action against harmful plants; details: 504 h, dosage 80 g/ha
Source text: (§1) The abbreviations used in the tables below denote: • ABUTH Abutilon theophrasti • AMARE Amaranthus retroflexus • ECHCG Echinochloa crus galli • PHBPU Phartoitis purpureum • STEME Stellaria media • ALOMY Alopecurus myosuroides • AVEFA Avena fatua • MATIN Matricaria inodora • POLCO Fallopia convolvulus • VERPE Veronica persica 1. Pre-emergence Herbicidal Action Against Harmful Plants Seeds of monocotyledonous and dicotyledonous weed and crop plants are placed in sandy loam in wood-fibre pots, covered with soil and cultivated in a greenhouse under good growth conditions. 2 to 3 weeks after sowing, the test plants are treated at the one-leaf stage. The compounds according to the invention, formulated in the form of wettable powders (WP) or as emulsion concentrates (EC), are then sprayed as aqueous suspension or emulsion at a water application rate of 600 to 800 I/ha (converted) with the addition of 0.2% of wetting agent onto the green parts of the plants. After the test plants have been kept in the greenhouse under optimum growth conditions for about 3 weeks, the activity of the preparations is rated visually in comparison to untreated controls (herbicidal activity in percent (%): 100% activity=the plants have died, 0% activity=control plants, —=not tested).

Matricaria inodora [2] = experiment: as above; details: Tripleurospermum inodorum, 504 h, dosage 80 g/ha, read-out: Herbicidal action against MATIN
Source text: as §1

Stellaria media [3] = experiment: as above; details: 504 h, dosage 80 g/ha, visual rating after about 3 weeks (Table D), read-out: Herbicidal action against STEME
Source text: as §1

Veronica persica [4] = experiment: as above; details: 504 h, dosage 80 g/ha, visual rating after about 3 weeks (Table D), read-out: Herbicidal action against VERPE
Source text: as §1

Abutilon theophrasti [5] = experiment: as above; details: 504 h, dosage 80 g/ha, read-out: Herbicidal action against ABUTH
Source text: as §1

Amaranthus retroflexus [6] = experiment: as above; details: 504 h, dosage 80 g/ha, visual rating after about 3 weeks (Table D), read-out: Herbicidal action against AMARE
Source text: as §1

Echinochloa crus galli [7] = experiment: as above; details: 504 h, dosage 80 g/ha, visual rating after about 3 weeks (Table D), read-out: Herbicidal action against ECHCG
Source text: as §1

Phartoitis purpureum [8] = experiment: Pre-emergence herbicidal action against harmful plants; details: dosage 320 g/ha, visual assessment after 3 weeks (Table A)
Source text: (§2) The abbreviations used in the tables below denote: • ABUTH Abutilon theophrasti • AMARE Amaranthus retroflexus • ECHCG Echinochloa crus galli • PHBPU Phartoitis purpureum • STEME Stellaria media • ALOMY Alopecurus myosuroides • AVEFA Avena fatua • MATIN Matricaria inodora • POLCO Fallopia convolvulus • VERPE Veronica persica 1. Pre-emergence Herbicidal Action Against Harmful Plants Seeds of monocotyledonous and dicotyledonous weed plants and crop plants are placed in wood-fibre pots in sandy loam and covered with soil. The compounds according to the invention and the compounds known from the prior art, formulated in the form of wettable powders (WP) or as emulsion concentrates (EC), are then applied as aqueous suspension or emulsion at a water application rate of 600 to 800 I/ha (converted) with the addition of 0.2% of wetting agent to the surface of the covering soil. After the treatment, the pots are placed in a greenhouse and kept under good growth conditions for the test plants. The visual assessment of the damage to the test plants is carried out after a trial period of 3 weeks by comparison with untreated controls (herbicidal activity in percent (%): 100% activity=the plants have died, 0% activity=like control plants, —=not tested). The results of comparative table A show the compounds according to the invention have a higher herbicidal activity than the compounds of the greatest structural similarity known from the closest prior art.

Matricaria inodora [9] = experiment: as above; details: Tripleurospermum inodorum, 504 h, dosage 320 g/ha, visual assessment after 3 weeks (Table A), read-out: Herbicidal action against MATIN
Source text: as §2

Stellaria media [10] = experiment: as above; details: 504 h, dosage 320 g/ha, visual assessment after 3 weeks (Table A), read-out: Herbicidal action against STEME
Source text: as §2

Veronica persica [11] = experiment: as above; details: 504 h, dosage 320 g/ha, visual assessment after 3 weeks (Table A), read-out: Herbicidal action against VERPE
Source text: as §2

Abutilon theophrasti [12] = experiment: as above; details: Abutilon theophrasti, 504 h, dosage 320 g/ha, visual assessment after 3 weeks (Table A), read-out: Herbicidal action against ABUTH
Source text: as §2

Amaranthus retroflexus [13] = experiment: as above; details: 504 h, dosage 320 g/ha, visual assessment after 3 weeks (Table A), read-out: Herbicidal action against AMARE
Source text: as §2

Echinochloa crus galli [14] = experiment: as above; details: Echinochloa, 504 h, dosage 320 g/ha, visual assessment after 3 weeks (Table A), read-out: Herbicidal action against ECHCG
Source text: as §2

Fallopia convolvulus = experiment: Post-emergence herbicidal action against harmful plants; details: 504 h, dosage 80 g/ha, read-out: Herbicidal action against POLCO
Source text: as §1

[15] = visual rating after about 3 weeks (Table D), read-out: Herbicidal action against PHBPU
[16] = visual rating after about 3 weeks (Table D)
[17] = visual rating after about 3 weeks (Table E), read-out: Herbicidal action against PHPBU
[18] = visual rating after about 3 weeks (Table E)

SMILES | pest or weed control at 80 g/ha (Phartoitis purpureum [1]; [15]) | pest or weed control at 80 g/ha (Matricaria inodora [2]; [16]) | pest or weed control at 80 g/ha (Stellaria media [3]) | pest or weed control at 80 g/ha (Veronica persica [4]) | pest or weed control at 80 g/ha (Abutilon theophrasti [5]; [16]) | pest or weed control at 80 g/ha (Amaranthus retroflexus [6]) | pest or weed control at 80 g/ha (Echinochloa crus galli [7]) | Herbicidal action against PHBPU (Phartoitis purpureum [8]) | pest or weed control at 320 g/ha (Matricaria inodora [9]) | pest or weed control at 320 g/ha (Stellaria media [10]) | pest or weed control at 320 g/ha (Veronica persica [11]) | pest or weed control at 320 g/ha (Abutilon theophrasti [12]) | pest or weed control at 320 g/ha (Amaranthus retroflexus [13]) | pest or weed control at 320 g/ha (Echinochloa crus galli [14]) | pest or weed control at 80 g/ha (Fallopia convolvulus; [16]) | pest or weed control at 80 g/ha (Phartoitis purpureum [1]; [17]) | pest or weed control at 80 g/ha (Matricaria inodora [2]; [18]) | pest or weed control at 80 g/ha (Fallopia convolvulus; [18]) | pest or weed control at 80 g/ha (Abutilon theophrasti [5]; [18])
CCN(CC)C(=O)COc1c(S(C)(=O)=O)ccc(C(=O)C2=C(O)CCCC2=O)c1C(F)(F)F [Compound E2] | 100% | 100% | 100% | 100% | 90% | 100% | 90% | 80% | 100% | 90% | 100% | 100% | 100% | 100% | – | – | – | – | –
CCN(CC)C(=O)COc1c(S(=O)(=O)CC)ccc(C(=O)C2=C(O)CCCC2=O)c1C(F)(F)F [Compound E3] | 90% | 90% | 100% | 100% | 100% | 100% | 100% | 90% | 100% | 100% | 100% | 100% | 100% | 100% | 90% | – | – | – | –
CCN(C)C(=O)COc1c(S(=O)(=O)CC)ccc(C(=O)C2=C(O)CCCC2=O)c1C(F)(F)F [Compound E6] | 100% | 100% | 100% | 100% | 100% | 90% | 100% | – | 100% | 100% | 100% | 100% | 100% | 100% | 90% | – | – | – | –
CCS(=O)(=O)c1ccc(C(=O)C2=C(O)CCCC2=O)c(C(F)(F)F)c1OCC(=O)NC [Compound E10] | – | – | – | – | – | – | – | – | – | – | – | – | – | – | – | 100% | 90% | 100% | 100%
CN(C)C(=O)COc1c(S(C)(=O)=O)ccc(C(=O)C2=C(O)CCCC2=O)c1C(F)(F)F [Compound E4] | – | 90% | 100% | 100% | 90% | 90% | – | – | 100% | 90% | 100% | 100% | 100% | 100% | 70% | – | – | – | –
CN(C)C(=O)COc1c(S(C)(=O)=O)ccc(C(=O)C2=C(O)CCCC2=O)c1Cl [Compound S4, reference compound] | – | 70% | 90% | 90% | 70% | 60% | – | – | 80% | 90% | 100% | 50% | 100% | 40% | 0% | – | – | – | –
CCN(CC)C(=O)COc1c(S(=O)(=O)CC)ccc(C(=O)C2=C(O)CCCC2=O)c1Cl [Compound S3, reference compound] | 60% | 70% | 90% | 90% | 90% | 100% | 0% | 40% | 80% | 50% | 100% | 70% | 80% | 50% | 40% | – | – | – | –
CCN(C)C(=O)COc1c(S(=O)(=O)CC)ccc(C(=O)C2=C(O)CCCC2=O)c1Cl [Compound S6, reference compound] | 80% | 80% | 90% | 100% | 90% | 80% | 20% | – | 80% | 80% | 90% | 100% | 100% | 90% | 0% | – | – | – | –
CCS(=O)(=O)c1ccc(C(=O)C2=C(O)CCCC2=O)c(Cl)c1OCC(=O)NC [Compound S10, reference compound] | – | – | – | – | – | – | – | – | – | – | – | – | – | – | – | 90% | 70% | 80% | 90%
CCN(CC)C(=O)COc1c(S(C)(=O)=O)ccc(C(=O)C2=C(O)CCCC2=O)c1Cl [Compound S2, reference compound] | 90% | 70% | 90% | 90% | 80% | 90% | 30% | 70% | 60% | 20% | 100% | 40% | 100% | 70% | – | – | – | – | –

From US8557741B2, “3-aminocarbonyl-substituted benzoylcyclohexanediones and their use as herbicides” (Bayer CropScience AG, priority 2010, dated 2013)
